Laboratory results taken from patent US20180161310A1, “COMPOUNDS AND METHODS FOR THE TREATMENT OF NEUROLOGICAL DISORDERS” (Teleos Therapeutics, LLC, priority 2016, published 2018).

These compounds were tested on PTZ-induced behavior in zebrafish larvae (assay: Suppression of PTZ-induced behavior in zebrafish larvae). Details: zebrafish, in vivo.
Type: in vivo
Method: Differences between behavioral profiles of larval zebrafish treated with KCC2 inhibitors and larval zebrafish treated with PTZ were investigated by evaluating the ability of traditional anti-seizure drugs to reverse their effects. Five drugs in at least six concentrations (by allocating 12 wells per concentration) were tested. These drugs included a benzodiazepine anxiolytic (diazepam), two AEDs that increase GABA levels in the synapse (tiagabine and valproate), a sodium channel blocker (phenytoin) and a synthetic neurosteroid GABAA positive allosteric modulator (PAM, ganaxolone).

| Structure (SMILES) | prevention of the formation of the PTZ-induced behavior |
| --- | --- |
| CN1C(=O)CN=C(c2ccccc2)c2cc(Cl)ccc21 [diazepam] | almost completely prevented |

What follows are compounds tested against T1, Kv7.2/7.3 (KCNQ2/3) (Homo sapiens, UniProt O43525+O43526) (assay: CHO-Kv7.2/7.3 (KCNQ2/3) 86Rb efflux assay). Details: 10-point CRC 0.001-30 μM, n=2; fit with maximum activation set at 100% of 70 mM KCl control; read-out: EC50.
T1 construct: expressed in transfected cells; host or cells: CHO
Type: cell-based
Method: Compounds were tested at concentrations from 0.001 μM to 30 μM to generate 10-point concentration-response curve (CRC) (n=2). Retigabine and ML213 were included as control activators of Kv7.2/7.3 (KCNQ2/3). Data was normalized to ^86Rb flux elicited by application of extracellular buffer containing 70 mM KCl.
Data were fit with “maximum activation” set at 100% of 70 mM KCl control stimulus.

| Structure (SMILES) | EC50 |
| --- | --- |
| Cc1cc(C)c(NC(=O)C2CC3CCC2C3)c(C)c1 (centres unmarked) [ML213, reference compound] | 0.02 µM |
| CCOC(=O)Nc1ccc(NCc2ccc(F)cc2)cc1N [Retigabine, reference compound] | 0.1 µM |
| CCCOc1nn(CCC)cc1C(=O)Nc1ccc(F)cc1F [TT0000349, N-(2,4-difluorophenyl)-3-propoxy-1-propyl-1H-pyrazole-4-carboxamide] | > 30 µM |
| CCCOc1nn(CCC)cc1C(=O)Nc1cc(F)ccc1F [TT0000351, N-(2,5-difluorophenyl)-3-propoxy-1-propyl-1H-pyrazole-4-carboxamide] | > 30 µM |
| CCCOc1nn(CCC)cc1C(=O)Nc1ccc(F)c(Cl)c1 [TT0000352, N-(3-chloro-4-fluorophenyl)-3-propoxy-1-propyl-1H-pyrazole-4-carboxamide] | > 30 µM |
| CCCOc1nn(CCC)cc1C(=O)Nc1ccccc1 [TT0000363, N-phenyl-3-propoxy-1-propyl-1H-pyrazole-4-carboxamide] | > 30 µM |
| CCCOc1nn(CCC)cc1C(=O)Nc1ccc(C#N)cc1 [TT0000366, N-(4-cyanophenyl)-3-propoxy-1-propyl-1H-pyrazole-4-carboxamide] | > 30 µM |
| CCCOc1nn(CCC)cc1C(=O)Nc1ccc(C(F)(F)F)c(Cl)c1 [TT0000369, N-(3-chloro-4-(trifluoromethyl)phen-yl)-3-propoxy-1-propyl-1H-pyrazole-4-carboxamide] | > 30 µM |
| CCCOc1nn(CCC)cc1C(=O)Nc1ccc(C(F)(F)F)c(C)c1 [TT0000372, N-(3-methyl-4-(trifluoromethyl)phen-yl)-3-propoxy-1-propyl-1H-pyrazole-4-carboxamide] | > 30 µM |

Same assay, conditions: 86Rb flux normalized to 70 mM KCl control

| Structure (SMILES) | Max Flux % |
| --- | --- |
| Cc1cc(C)c(NC(=O)C2CC3CCC2C3)c(C)c1 (centres unmarked) [ML213, reference compound] | 109% |

Same assay, conditions: 86Rb flux normalized to 70 mM KCl control; read-out: Max Flux %

| Structure (SMILES) | Emax |
| --- | --- |
| CCOC(=O)Nc1ccc(NCc2ccc(F)cc2)cc1N [Retigabine, reference compound] | 89% |
| CCCOc1nn(CCC)cc1C(=O)Nc1ccc(F)cc1F [TT0000349, N-(2,4-difluorophenyl)-3-propoxy-1-propyl-1H-pyrazole-4-carboxamide] | 33% |
| CCCOc1nn(CCC)cc1C(=O)Nc1cc(F)ccc1F [TT0000351, N-(2,5-difluorophenyl)-3-propoxy-1-propyl-1H-pyrazole-4-carboxamide] | 33% |
| CCCOc1nn(CCC)cc1C(=O)Nc1ccc(F)c(Cl)c1 [TT0000352, N-(3-chloro-4-fluorophenyl)-3-propoxy-1-propyl-1H-pyrazole-4-carboxamide] | 33% |
| CCCOc1nn(CCC)cc1C(=O)Nc1ccccc1 [TT0000363, N-phenyl-3-propoxy-1-propyl-1H-pyrazole-4-carboxamide] | 15% |
| CCCOc1nn(CCC)cc1C(=O)Nc1ccc(C#N)cc1 [TT0000366, N-(4-cyanophenyl)-3-propoxy-1-propyl-1H-pyrazole-4-carboxamide] | 28% |
| CCCOc1nn(CCC)cc1C(=O)Nc1ccc(C(F)(F)F)c(Cl)c1 [TT0000369, N-(3-chloro-4-(trifluoromethyl)phen-yl)-3-propoxy-1-propyl-1H-pyrazole-4-carboxamide] | 35% |
| CCCOc1nn(CCC)cc1C(=O)Nc1ccc(C(F)(F)F)c(C)c1 [TT0000372, N-(3-methyl-4-(trifluoromethyl)phen-yl)-3-propoxy-1-propyl-1H-pyrazole-4-carboxamide] | 31% |

Same assay, conditions: EC50 values comparable to literature values

| Structure (SMILES) | 86Rb flux elicited by reference activators |
| --- | --- |
| Cc1cc(C)c(NC(=O)C2CC3CCC2C3)c(C)c1 (centres unmarked) [ML213, reference compound] | robust concentration-dependent |

Same assay, conditions: Table 7, first line of values; read-out: EC50 (μM, raw)

| Structure (SMILES) | EC50 |
| --- | --- |
| CCCOc1nn(CCC)cc1C(=O)Nc1ccc(F)cc1F [TT0000349, N-(2,4-difluorophenyl)-3-propoxy-1-propyl-1H-pyrazole-4-carboxamide] | 0.54 µM |
| CCCOc1nn(CCC)cc1C(=O)Nc1cc(F)ccc1F [TT0000351, N-(2,5-difluorophenyl)-3-propoxy-1-propyl-1H-pyrazole-4-carboxamide] | > 30 µM |
| CCCOc1nn(CCC)cc1C(=O)Nc1ccc(F)c(Cl)c1 [TT0000352, N-(3-chloro-4-fluorophenyl)-3-propoxy-1-propyl-1H-pyrazole-4-carboxamide] | 0.48 µM |
| CCCOc1nn(CCC)cc1C(=O)Nc1ccccc1 [TT0000363, N-phenyl-3-propoxy-1-propyl-1H-pyrazole-4-carboxamide] | > 30 µM |
| CCCOc1nn(CCC)cc1C(=O)Nc1ccc(C#N)cc1 [TT0000366, N-(4-cyanophenyl)-3-propoxy-1-propyl-1H-pyrazole-4-carboxamide] | 0.0054 µM |
| CCCOc1nn(CCC)cc1C(=O)Nc1ccc(C(F)(F)F)c(Cl)c1 [TT0000369, N-(3-chloro-4-(trifluoromethyl)phen-yl)-3-propoxy-1-propyl-1H-pyrazole-4-carboxamide] | 1.54 µM |
| CCCOc1nn(CCC)cc1C(=O)Nc1ccc(C(F)(F)F)c(C)c1 [TT0000372, N-(3-methyl-4-(trifluoromethyl)phen-yl)-3-propoxy-1-propyl-1H-pyrazole-4-carboxamide] | 9.5 µM |

Same assay, conditions: Table 7, second, unlabelled line of values; read-out: EC50 (μM, raw)

| Structure (SMILES) | EC50 |
| --- | --- |
| CCCOc1nn(CCC)cc1C(=O)Nc1ccc(F)cc1F [TT0000349, N-(2,4-difluorophenyl)-3-propoxy-1-propyl-1H-pyrazole-4-carboxamide] | > 30 µM |
| CCCOc1nn(CCC)cc1C(=O)Nc1cc(F)ccc1F [TT0000351, N-(2,5-difluorophenyl)-3-propoxy-1-propyl-1H-pyrazole-4-carboxamide] | > 10 µM |
| CCCOc1nn(CCC)cc1C(=O)Nc1ccc(F)c(Cl)c1 [TT0000352, N-(3-chloro-4-fluorophenyl)-3-propoxy-1-propyl-1H-pyrazole-4-carboxamide] | 0.14 µM |
| CCCOc1nn(CCC)cc1C(=O)Nc1ccccc1 [TT0000363, N-phenyl-3-propoxy-1-propyl-1H-pyrazole-4-carboxamide] | > 30 µM |
| CCCOc1nn(CCC)cc1C(=O)Nc1ccc(C#N)cc1 [TT0000366, N-(4-cyanophenyl)-3-propoxy-1-propyl-1H-pyrazole-4-carboxamide] | > 30 µM |
| CCCOc1nn(CCC)cc1C(=O)Nc1ccc(C(F)(F)F)c(Cl)c1 [TT0000369, N-(3-chloro-4-(trifluoromethyl)phen-yl)-3-propoxy-1-propyl-1H-pyrazole-4-carboxamide] | 2.63 µM |
| CCCOc1nn(CCC)cc1C(=O)Nc1ccc(C(F)(F)F)c(C)c1 [TT0000372, N-(3-methyl-4-(trifluoromethyl)phen-yl)-3-propoxy-1-propyl-1H-pyrazole-4-carboxamide] | 1.6 µM |

Same assay, conditions: concentration at which maximal 86Rb flux was seen

| Structure (SMILES) | Conc μM @ Max Flux |
| --- | --- |
| Cc1cc(C)c(NC(=O)C2CC3CCC2C3)c(C)c1 (centres unmarked) [ML213, reference compound] | 0.3 µM |
| CCCOc1nn(CCC)cc1C(=O)Nc1ccc(F)cc1F [TT0000349, N-(2,4-difluorophenyl)-3-propoxy-1-propyl-1H-pyrazole-4-carboxamide] | 10 µM |
| CCCOc1nn(CCC)cc1C(=O)Nc1cc(F)ccc1F [TT0000351, N-(2,5-difluorophenyl)-3-propoxy-1-propyl-1H-pyrazole-4-carboxamide] | 10 µM |
| CCCOc1nn(CCC)cc1C(=O)Nc1ccc(F)c(Cl)c1 [TT0000352, N-(3-chloro-4-fluorophenyl)-3-propoxy-1-propyl-1H-pyrazole-4-carboxamide] | 3 µM |
| CCCOc1nn(CCC)cc1C(=O)Nc1ccccc1 [TT0000363, N-phenyl-3-propoxy-1-propyl-1H-pyrazole-4-carboxamide] | 0.001 µM |
| CCCOc1nn(CCC)cc1C(=O)Nc1ccc(C#N)cc1 [TT0000366, N-(4-cyanophenyl)-3-propoxy-1-propyl-1H-pyrazole-4-carboxamide] | 3 µM |
| CCCOc1nn(CCC)cc1C(=O)Nc1ccc(C(F)(F)F)c(Cl)c1 [TT0000369, N-(3-chloro-4-(trifluoromethyl)phen-yl)-3-propoxy-1-propyl-1H-pyrazole-4-carboxamide] | 3 µM |
| CCCOc1nn(CCC)cc1C(=O)Nc1ccc(C(F)(F)F)c(C)c1 [TT0000372, N-(3-methyl-4-(trifluoromethyl)phen-yl)-3-propoxy-1-propyl-1H-pyrazole-4-carboxamide] | 10 µM |

Same assay, conditions: fit; maximum activation set at 100% of 70 mM KCl control stimulus

| Structure (SMILES) | Fitted Max % |
| --- | --- |
| Cc1cc(C)c(NC(=O)C2CC3CCC2C3)c(C)c1 (centres unmarked) [ML213, reference compound] | 98% |
| CCCOc1nn(CCC)cc1C(=O)Nc1ccc(F)cc1F [TT0000349, N-(2,4-difluorophenyl)-3-propoxy-1-propyl-1H-pyrazole-4-carboxamide] | 100% |
| CCCOc1nn(CCC)cc1C(=O)Nc1cc(F)ccc1F [TT0000351, N-(2,5-difluorophenyl)-3-propoxy-1-propyl-1H-pyrazole-4-carboxamide] | 100% |
| CCCOc1nn(CCC)cc1C(=O)Nc1ccc(F)c(Cl)c1 [TT0000352, N-(3-chloro-4-fluorophenyl)-3-propoxy-1-propyl-1H-pyrazole-4-carboxamide] | 100% |
| CCCOc1nn(CCC)cc1C(=O)Nc1ccccc1 [TT0000363, N-phenyl-3-propoxy-1-propyl-1H-pyrazole-4-carboxamide] | 100% |
| CCCOc1nn(CCC)cc1C(=O)Nc1ccc(C#N)cc1 [TT0000366, N-(4-cyanophenyl)-3-propoxy-1-propyl-1H-pyrazole-4-carboxamide] | 100% |
| CCCOc1nn(CCC)cc1C(=O)Nc1ccc(C(F)(F)F)c(Cl)c1 [TT0000369, N-(3-chloro-4-(trifluoromethyl)phen-yl)-3-propoxy-1-propyl-1H-pyrazole-4-carboxamide] | 100% |
| CCCOc1nn(CCC)cc1C(=O)Nc1ccc(C(F)(F)F)c(C)c1 [TT0000372, N-(3-methyl-4-(trifluoromethyl)phen-yl)-3-propoxy-1-propyl-1H-pyrazole-4-carboxamide] | 100% |
